Values of other authors as cited in EP0243248A1, “Compositions for the treatment of baldness and alopecia” (LABORATOIRES PHARMACEUTIQUES ROCHE-POSAY, priority 1986, dated 1987).

Conditions: for solubilité dans l'alcool: alcohol, in words; for solubilité dans les solutions alcalines / en milieu alcalin: alkaline solutions / alkaline medium; for solubilité dans l'eau: water

Row | SMILES | solubilité dans l'alcool | solubilité dans les solutions alcalines / en milieu alcalin | solubilité dans le chloroforme (chloroform) | solubilité dans l'ether (ether) | solubilité dans l'eau
1 | O=C1NC(=O)C(c2ccccc2)(c2ccccc2)N1 [diphénylhydantoï-nate de sodium] | un peu soluble | soluble | insoluble | insoluble | un peu soluble
2 | O=C1NC(=O)C(c2ccccc2)(c2ccccc2)N1 [Phenytoïne, diphényl-5,5 imidazolidinedione-2,4] | – | – | – | – | pratiquement insoluble
3 | CC1=NS(=O)(=O)c2cc(Cl)ccc2N1 [diazoxyde, chloro-7 méthyl-3 benzothiadiazine 1, 2,4 dioxyde-1,1] | solubles | solubles | – | – | insolubles
